Laboratory results from patent publication US20200129450A1, “COMPOSITION COMPRISING OSMUNDACETONE OR PHARMACEUTICALLY ACCEPTABLE SALT THEREOF FOR PREVENTING OR TREATING BONE DISEASE” (KORPHARM CO., LTD., priority 2016, published 2020).

Tests used:
[1] = test system: ALP activity of MC3T3-E1 osteoblasts in co-incubation; assay: Co-culture of osteoclasts and osteoblasts: ALP activity; assay type: cell-based, mouse; settings: 10 μM, vs non-treated
Method: 1×10^5 C57BL/6 mouse bone marrow mononuclear cells per well of a 48-well plate were prepared in the same manner as described above, and co-incubated together with 1.5×10^4 MC3T3-E1 murine osteoblasts, using 500 μL of α-MEM containing 10% FBS and 1% antibiotic (100 U/mL penicillin G and […] streptomycin) in the conditions of 37° C. and 5% CO2 while the medium was exchanged every three days.
Positive control cells were co-incubated together with osteoclast differentiation factors M-CSF (60 ng/mL) and RANKL (150 ng/mL), and osteoblast differentiation factors ascorbic acid (50 μg/mL) and 10 mM R-glycerophosphate.
Negative control cells were incubated by adding only M-CSF as a differentiation factor. In order to examine effects of osmundacetone on the differentiation of osteoclasts and osteoblasts, osmundacetone were administered at a final concentration of 10 μM into the positive control cells on day 1 after the cells were dispensed on the plate.
ALP activity was assessed using Quantichrom ALP Assay Kit (Bioassay Systems, Hayward, Calif., USA) according to manufacturer's instructions.
[…] The % activation of ALP activity was shown by comparing ALP activity of cells treated with an experimental compound and ALP activity of the non-treated control cells.
In order to investigate whether or not osmundacetone has ability to inhibit osteoclast differentiation and activate osteoblast differentiation simultaneously, bone marrow mononuclear cells collected from C57BL/6 mice and MC3T3-E1 cells as osteoblast precursor cells were co-incubated in a 48-well plate at cell concentrations of 1×10^5 bone marrow cells and […] MC3T3-E1 cells per well. The bone marrow monocyte/macrophage lineage cells in the co-incubated bone marrow cells and osteoblast precursor cells differentiated into mature multinuclear osteoclasts in the presence of M-CSF and RANKL within 6-7 days.

RUNX2 in MC3T3-E1 cells = assay: Western blot, RUNX2 expression; assay type: cell-based, mouse; settings: 50 μM
Method: In order to analyze the expression of osteoblast differentiation markers during a differentiation procedure, 3×10^5 MC3T3-E1 cells were dispensed in a 100 mm culture plate together with 10 mL of complete α-MEM containing ascorbic acid (50 μg/mL) and 10 mM R-glycerophosphate per well. Here, 50 μM osmundacetone was added or not added, and the cells were incubated at 37 […] in a 5% CO2 incubator for 21 days while the medium was exchanged every 3-4 days.
The negative control cells were cultured without differentiation factors, and the osteoblasts and a culture thereof were dispensed, and then collected on day 7, 14, or 21.
The cells were lysed using RIPA buffer, and then the expression of runt-related transcription factor 2 (RUNX2) was analyzed. Also for analysis of OCN secretion, the culture was collected, and normalized by cellular DNA.
Proteins were analyzed using SDS-PAGE on 12.5% […] gels, and transferred on polyvinylidene difluoride (PVDF) membrane through electrophoresis.
The membrane was blocked using non-fat milk, and examined using anti-RUNX2 (D1H7) rabbit monoclonal antibody (#8486, Cell Signaling Technology, MA, USA) or anti-OCN (FL-95) antibody (# sc-30045, Santa Cruz Biotechnology, TX, USA). Anti-actin antibody (# M177-3, MEDICAL & BIOLOGICAL LABORATORIES CO., LTD., Nagoya, Aichi, Japan) was used as an internal reference.
Protein bands on the blot were visualized using an enhanced chemiluminescent detection kit (# EBP-1073, PicoEPD Western Reagent, ELPIS-BIOTECH, Daejeon, Korea).

[2] = test system: ADMSC human Adipose-derived mesenchymal stem cells; assay: MTT assay cytotoxicity; assay type: cell-based; settings: 24 hours, read-out: IC50 according to MTT assay
Method: Human adipose-derived mesenchymal stem cells, ADMSCs (CEFO Bio, Seoul, Korea), were incubated using CB-ADMSC-GM (CEFO Bio, Seoul, Korea) in the conditions of 37° C. and 5% CO2.
(§1) The compound isolated from Osmunda japonica, prepared in section 1 of <Example 1>, was investigated for cytotoxicity using MTT assay.
(§2) MTT assay was as follows.
(§3) Cells were incubated at 1×10^3 cells/well in a 96-well plate containing DMEM with 10% fetal bovine serum (FBS) at 5% CO2 and 37° C., and then osmundacetone was added to the cell medium, followed by incubation for 24 hours. Thereafter, 100 μL of MTT (0.5 mg/ml PBS) was administered, followed by incubation for 2 hours. Thereafter, the medium was removed from each well, and 100 μL of DMSO was added. After incubation for 10 minutes, the absorbance was measured using a microplate reader (SPCTRA MAX 340PC, Molecular Devices, USA) at 570 nm. The absorbance is an indicator showing the number of living cells, and calculated by the following equation. The reproducibility thereof was validated by three experiments.
Cell proliferation (%)=OD550(sample)/OD550(control)

[3] = test system: A549 human lung carcinoma; assay: MTT assay cytotoxicity; assay type: cell-based; settings: cancer cell
Method: (§4) AGS human stomach adenocarcinoma cells (# KCLB 21739), A549 human lung carcinoma cells (# KCLB 10185), Caki-1 human kidney carcinoma cells (# KCLB 30046), T24 human bladder carcinoma cells (# KCLB 30004), TC-1 P3 HPV-16E7-expressing mouse pulmonary epithelial cells, MHC class I (provided by Tae-Woo Kim, a professor of Korea University) were incubated using RPMI (Rosewell Park Memorial Institute) 1640 (# RPMI-A, Capricorn Scientific, Ebsdorfergrund, Germany) in the conditions of 37° C. and 5% CO2.
as §1, §2
as §3, with “experiments. […]” for “experiments.”

[4] = test system: AGS human stomach adenocarcinoma; assay: MTT assay cytotoxicity; assay type: cell-based; settings: 24 hours
Method: as §4, §1, §2
as §3, with “experiments. […]” for “experiments.”

Compound: CC(=O)/C=C/c1ccc(O)c(O)c1 [Osmundacetone, (3E)-4-(3,4-dihydroxyphenyl)-3-buten-2-one]
- % activation of ALP activity in co-incubation ([1]; day 7 of co-incubation): 104%
- % activation of ALP activity in co-incubation ([1]; day 14 of co-incubation): 111%
- % activation of ALP activity in co-incubation ([1]; day 21 of co-incubation): 95%
- RUNX2 expression level, increase compared with non-treated positive control group (RUNX2 in MC3T3-E1 cells; day 7): 1.1 times
- RUNX2 expression level, increase compared with non-treated positive control group (RUNX2 in MC3T3-E1 cells; day 14): 1.1 times
- RUNX2 expression level, increase compared with non-treated positive control group (RUNX2 in MC3T3-E1 cells; day 21): 2.1 times
- IC50 [2]: 2.76 mM
- LD50 (μM) Based on MIT Assay [3]: >5,000 μM
- LD50 (MTT assay) [4]: 59.9 ± 6.1 µM
